# Values quoted from earlier work, collected in PMC9014845 (Clinical cancer research : an official journal of the …, 2019).
# Tests used:
# [1] = test system: patients with FGFR alterations; conditions: cited from earlier work
# [2] = test system: patients with FGFR alterations; conditions: 23 patients with FGFR alterations; cited from earlier work
Structure (SMILES),Overall DCR [1] [%],Patients with stable disease for >3 months [2] [patients]
CCN1CCN(c2ccc(Nc3cc(N(C)C(=O)Nc4c(Cl)c(OC)cc(OC)c4Cl)ncn3)cc2)CC1 [BGJ398],37,
COc1cc(OC)cc(N(CCNC(C)C)c2ccc3ncc(-c4cnn(C)c4)nc3c2)c1 [JNJ-42756493],,8
